Data as given in US6548042B2, “Bis-phosphonate compounds” (priority 2000, dated 2003).
Several values for one entry are separate records, joined by “and”; a condition that tells them apart may be missing. Identical values can stand only once.

What was measured:
OHS cells = experiment: Antitumour efficacy, OHS osteogenic sarcoma model in nude rats; type: in vivo; settings: for Mean disease-free latency: 7 days after cell inoculation
Experimental: Initially, a skeletal metastases model in nude rats, including the human breast carcinoma line MT-1 (1) was tested. A total of 1×10^6 cells were injected into the left vintricula of the heart (L.V.) of 4-5 weeks old nude rats (2). A primary osteogenic sarcoma model in nude rats, was established by intratibial (i.t.) injection of 1×10^6 OHS cells (3-5). A total of 20 animals, allocated in four groups (n=5 for each group) were used for both cell lines. The animals inoculated with MT-1 cells were treated with 200, 300 or 400 MBq/kg of 46a seven days after cell injection. The animals inoculated with OHS cells were treated with 100, 200 or 400 MBq/kg of 46a seven days after cell inoculation. The control groups (MT-1 and OHS) received saline only. Doses were corrected for the actual weight of each animal and administered by single bolus tail vein injections.
The OHS model had been established by intratibial injections of the osteogenic sarcoma (OHS) cell line in immuno-deficient rats.^86,87 Eventually, the rats develop palpable tibial tumours. At the time of treatment (7 days after cell inoculation) the tumours fill approximately 50-60% of the tibial cavity and have a substantial osteoid production closely resembling that of osteoblastic osteosarcomas in the clinic.^88 The model has been used to evaluate the antitumour efficacy of several drugs currently used in the treatment of bone-related cancer.
Disease-free latency was defined as the period between tumour cell inoculation and the time the diameter of the tumour-injected tibia had increased by 2-3 mm compared with that of the non-injected contralateral leg.

[1] = Biodistribution of i.v. administered radioiodinated compounds in balb/c mice;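 note: healthy mice given radioiodinated bisphosphonic acids, with randomly chosen groups of three animals per time point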
Experimental: Mice. Samples of 100 μl containing 50,100, 400, 140 or 45 KBq of 31a, 34a, 46a, 67a or 72a, respectively, were injected into the tail veins as single bolus injections. […] At 0.5 h, 2 h, 5 h and 24 h postinjection times the animals were sacrificed; except in the case of the phosphate phosphonate derivative 31 were the animals were sacrificed 0.25 h, 2 h, 5 h and 24 h postinjection. Randomly selected groups of three animals were used at each time point. The whole animals were weighed and dissected. The excised organs, i.e. femur, skull, blood, heart, lung, liver, kidney, spleen, stomach, large intestine and small intestine, were weighed separately prior to counting.
Radioactivity measurements of the labelled compounds were carried out with a liquid scintillation counter (Beckman LS 6500, Beckman Instruments, USA) or with a Capintec CRC-7R radioisotope calibrator (Capintec, USA). The radioactivity level of the excised organs was measured with an automated gamma counter (LKB Wallac 1282, Turku, Finland).

[2] = all animals treated (100, 200, 400 MBq/kg)
[3] = 24 h postinjection, i.v., listed as 3h

## O=P(O)(O)C(O)(Cc1cccc([131I])c1)P(=O)(O)O [46a, 1-hydroxy(m-[^131I and ^125I]-iodophenyl)-ethylidene-1,1-bisphosphonic acid]
OHS cells; 100 MBq/kg
  Disease-free latency, range: 18 to 32 days
OHS cells; 100 MBq/kg, n=5
  Mean disease-free latency: 27 days
  Survivors: one survivor
OHS cells; 200 MBq/kg
  Disease-free latency, range: 26 to 36 days
OHS cells; 200 MBq/kg, n=5
  Mean disease-free latency: 30 days
  Survivors: one survivor
OHS cells; 400 MBq/kg
  Disease-free latency, range: 26 to 36 days
OHS cells; 400 MBq/kg, n=5
  Mean disease-free latency: 31 days
OHS cells; [2]
  Long time survivors (>100 days): 33%
  Long time survivors (>100 days), animals: 5 of 15
OHS cells; highest dose, 400 MBq/kg, n=5
  Long time survivors: 60%
  Long time survivors (animals): 3 and 3 of 5
OHS cells; highest dose, 400 MBq/kg, n=5, listed as 1
  Long time survivors (animals): 3 of 5
OHS cells; highest dose, Kruskal-Wallis test
  P of increase in disease-free latency time compared to the other groups: < 05
OHS cells; osteosarcoma model
  Lifetime after treatment: dramatic increase in lifetime
[1]; 0.5 h (30 min) postinjection, i.v.
  Uptake in femur: 45.03±6.75 % ID/g
[1]; 0.5 h (30 min) postinjection, i.v., listed as 3h
  Uptake in femur: 45±7 % ID/g
[1]; 0.5 h postinjection, i.v.
  Activity in blood: 15.92±12.75 % ID/g
  Uptake in kidneys: 18.64±1.78 % ID/g
  Uptake in skull: 24.61±3.85 % ID/g
[1]; 2 h postinjection (peak), i.v.
  Uptake in femur: 45.54±4.10 % ID/g
[1]; 2 h postinjection (peak), i.v., listed as 3h
  Uptake in femur: 46±4 % ID/g
[1]; 2 h postinjection, i.v.
  Activity in blood: 1.36±0.25 % ID/g
[1]; 24 h, soft tissue with highest uptake
  Femur to soft tissue ratio: ≥ 7
[1]; 24 h postinjection, i.v.
  Uptake in femur: 37.79±11.78 % ID/g
  Uptake in kidneys: 5.16±2.00 % ID/g
  Uptake in liver: 2.27±0.69 % ID/g
[1]; [3]
  Uptake in femur: 38±12 % ID/g
  Uptake in kidneys: 5±2 % ID/g
  Uptake in liver: 2±0.7 % ID/g
[1]; balb/c mice, 20-25 g, 2 h, maximum uptake, listed as 1
  Uptake in femur expressed as % gram dose per gram tissue: 1025 (balb/c mice, 20-25 g, 2 h), % gram dose per gram tissue
[1]; balb/c mice, 20-25 g, 24 h
  Uptake in stomach: 0.13 ± 0.01 % ID/g
  Uptake in the thyroid: 0.06 ± 0.04 % injected dose/organ
[1]; balb/c mice, 20-25 g, 24 h, listed as 1
  Ratio between uptake in femur and kidney: 7.3 (femur/kidney, balb/c mice, 20-25 g,
[1]; balb/c mice, 20-25 g, 24 h, listed as 3h
  Ratio between uptake in femur and kidney: 7
[1]; from thyroid and stomach uptake, Table 3
  In vivo stability relative to compound 2 and 3: about 7 times
[1]; single bolus tail vein injection, 100 μl
  Discomfort or toxicity after administration of samples: No sign of discomfort or toxicity was observed
